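Exposure lasted 48 hours, with cells grown in 96-well plates and compounds tested at five concentrations. The concentration for 50% growth inhibition is given as GI50.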 Activity calls are given as the source filed them. Cut-off read from the data, not from the text of the source: active = GI50 up to about 1.1 µM and inactive = higher.
Tests used:
Test in all cases: DTP human tumour cell line panel, 48 h
[1] = tested on: COLO 205
[2] = tested on: Malme-3M
[3] = tested on: SNB-75
[4] = tested on: HL-60
[5] = tested on: SK-MEL-2
[6] = tested on: ACHN
[7] = tested on: 786-0
[8] = tested on: SNB-19
[9] = tested on: NCI-H522
[10] = tested on: MOLT-4
[11] = tested on: UACC-62
[12] = tested on: OVCAR-4
[13] = tested on: SW-620
[14] = tested on: CCRF-CEM
[15] = tested on: RPMI-8226
[16] = tested on: K562
[17] = tested on: EKVX
[18] = tested on: MCF7
[19] = tested on: KM12
[20] = tested on: NCI-H226

Measured: GI50

CC(C)C1=C(O)C(=O)C2=C(C1=O)C(OC=O)C(O)C1C(C)(C)CCCC21C (stereo not given)
inactive: [1] 3.54 µM | [2] 7.08 µM | [3] 10.8 µM | [4] 3.56 µM | [5] 12.1 µM | [6] 3.87 µM | [7] 4.09 µM | [8] 13.4 µM | [9] 10.8 µM | [10] 2.25 µM | [11] 6.19 µM | [12] 10.2 µM | [13] 3.1 µM | [14] 3.27 µM | [15] 2.66 µM | [16] 6.35 µM | [17] 10.1 µM | [18] 11.4 µM | [19] 12 µM | [20] 5.08 µM

O=c1oc2ccc(-n3c(=O)c4ccccc4c4ccccc4c3=O)cc2c2ccccc12
inactive: [1] > 100 µM | [2] > 100 µM | [3] 27 µM | [4] > 100 µM | [5] 28.3 µM | [6] > 100 µM | [7] 66.2 µM | [8] 37.7 µM | [9] > 100 µM | [10] > 100 µM | [11] 64.6 µM | [12] > 100 µM | [13] > 100 µM | [14] > 100 µM | [15] > 100 µM | [16] > 100 µM | [17] > 100 µM | [18] > 100 µM | [19] > 100 µM | [20] > 100 µM

Nc1nc(O)c2[nH]cnc2[n+]1[O-]
inactive: [1] > 100 µM | [2] > 100 µM | [3] > 100 µM | [4] > 100 µM | [5] > 100 µM | [6] > 100 µM | [7] > 100 µM | [8] > 100 µM | [9] > 100 µM | [10] > 100 µM | [11] > 100 µM | [12] > 100 µM | [13] > 100 µM | [14] > 100 µM | [15] > 100 µM | [16] > 100 µM | [17] > 100 µM | [18] 37.1 µM | [19] > 100 µM | [20] > 100 µM

Sc1ncc(-c2cncc(-c3cnc(S)nc3)n2)cn1
inactive: [1] > 100 µM | [2] > 100 µM | [3] > 100 µM | [4] > 100 µM | [5] > 100 µM | [6] > 100 µM | [7] > 100 µM | [8] > 100 µM | [9] > 100 µM | [10] > 100 µM | [11] > 100 µM | [12] > 100 µM | [13] > 100 µM | [14] > 100 µM | [15] > 100 µM | [16] > 100 µM | [17] > 100 µM | [18] > 100 µM | [19] > 100 µM | [20] > 100 µM

CC1=CC(=O)CC2(C)CCC(C(C)CC(=O)CC(C)C)CC12 (stereo not given)
inactive: [1] 17.3 µM | [2] 24.9 µM | [3] > 100 µM | [4] 4.39 µM | [5] 78.9 µM | [6] 17.4 µM | [7] 16.4 µM | [8] > 100 µM | [9] 15.1 µM | [10] 18.3 µM | [11] 25.5 µM | [12] > 100 µM | [13] 22.7 µM | [14] 23.9 µM | [15] 20.2 µM | [16] 24.5 µM | [17] 48.9 µM | [18] 25.6 µM | [19] 19 µM | [20] 24.9 µM

Brc1cc(CCOC2CCCCO2)c(-c2sccc2CCOC2CCCCO2)s1 (stereo not given)
inactive: [1] 43.4 µM | [2] 24.9 µM | [3] 43.5 µM | [4] 17.8 µM | [5] 27.4 µM | [6] 50.8 µM | [7] 35.1 µM | [8] > 100 µM | [9] 14.4 µM | [10] 22.2 µM | [11] 58.5 µM | [12] 48 µM | [13] > 65.8 µM | [14] 19.9 µM | [15] 23.9 µM | [16] 13.8 µM | [17] 47.6 µM | [18] 20.3 µM | [19] 27 µM | [20] > 100 µM

Source: ChEMBL document CHEMBL1201862, “PubChem BioAssay data set” (2004)
